From PMC6204900 (The Journal of Biological Chemistry, 2018)
Entries after “also recorded” stand apart in the source; their conditions may differ. Like-named read-outs stand apart in the source and are kept apart here.

Legend:
IGF-1R [1] = biological target: T1, IGF-1R (Homo sapiens, UniProt P08069); assay: Whole-cell receptor-binding assay, IGF-1R in transfected mouse embryonic fibroblasts
T1 construct: expressed in transfected cells; host or cells: CHO-K1 (ATCC) stably transfected with pcDNA3-IGF-1R vector (gift of R. O'Connor); polyclonal CHO-R+ population
From the text: (§1) Human IM-9 lymphocytes (containing IR-A) and IGF-1R null mouse embryonic fibroblasts, stably transfected with either human IR-B or human IGF-1R, were employed for a whole-cell receptor-binding assay as described previously ([32], [33], [42]). For details, see supporting information.
(§2) ULTIMATE 3000 RSLCnano (Dionex, Thermo Scientific) coupled to TripleTOFTM 5600 (SCIEX).
The extent of iodination in a specific position in the three fractions containing iodinated Tyr residues […]
was approximated by comparing the area of peaks corresponding to peptides containing TyrB16, […]
(§3) TyrB26 and TyrB32 and their iodinated counterparts.
Human IM-9 lymphocytes (containing IR-A) and IGF-1R null mouse embryonic fibroblasts, […]
stably transfected with either human IR-B or human IGF-1R, were employed for whole cell receptor- […]
binding assay as described previously (3-5). […]
binding buffer (100 mM HEPES, 100 mM NaCl, 5 mM KCl, 1.3 mM MgSO4, 1 mM EDTA, 10 mM […]
glucose, 15 mM NaOAc, 1 % w/v BSA, pH 7.6). After incubation 2 x 200 µL were centrifuged at […]
(§4) 15,000 x g for 10 min in microfuge tubes containing 200 µL of pre-cooled HEPES binding buffer.
Radioactive pellets were counted using the Gamma Counter Wizard 1470 (Perkin Elmer). Binding data […]
(§5) were analyzed by Excel software using a method of non-linear regression and a one-site fitting program […]
developed in the laboratory of Dr. Pierre De Meyts (A.V. Groth and R.M. Shymko, Hagedorn Research […]
Institute, Denmark, a kind gift of Pierre De Meyts). […]
set up to 0.3 nM. Receptor binding assays were performed under conditions excluding the depletion of […]
(§6) calculated using the two-tailed t test. […]
Following the incubation, the cells were washed twice with ice-cold binding buffer and solubilized with 0.1 M NaOH. Cell-associated radioactivity was counted using the Gamma Counter Wizard 1470 (Perkin Elmer). Binding data were analyzed by and the dissociation constant (Kd) was determined with GraphPad Prism 5 using a non-linear regression, a one-site fitting program and taking into account potential depletion of free ligand.
Each binding curve was determined […]

IR-A [2] = biological target: T2, IR-A (Homo sapiens, UniProt P06213); assay: Whole-cell receptor-binding assay, IR-A in IM-9 lymphocytes; conditions: as E1; measurement series ≈; read-out: IR-A Kd ± S.D. (n)
T2 construct: host or cells: human IM-9 lymphocytes
From the text: as §1, §2
The extent of iodination in a specific position in the three fractions containing iodinated Tyr residues
was approximated by comparing the area of peaks corresponding to peptides containing TyrB16,
as §3
Human IM-9 lymphocytes (containing IR-A) and IGF-1R null mouse embryonic fibroblasts,
stably transfected with either human IR-B or human IGF-1R, were employed for whole cell receptor-
binding assay as described previously (3-5).
binding buffer (100 mM HEPES, 100 mM NaCl, 5 mM KCl, 1.3 mM MgSO4, 1 mM EDTA, 10 mM
glucose, 15 mM NaOAc, 1 % w/v BSA, pH 7.6). After incubation 2 x 200 µL were centrifuged at
as §4
Radioactive pellets were counted using the Gamma Counter Wizard 1470 (Perkin Elmer). Binding data
as §5, §6

IGF-1R [3] = biological target: T1, IGF-1R; assay: Association, dissociation and accelerated dissociation kinetics of 125I-labeled ligands on IGF-1R in CHO-R+ cells; format: binding; conditions: for (d1) dissociation rate at maximum acceleration ± S.D., IGF-1R / dissociation rate (measured) ± S.D., IGF-1R: 15°C; for (d1) dissociation rate at maximum acceleration ± S.D., IGF-1R: dissociation of 125I-labeled ligand in the presence of 170 nM cold ligand (17 μM for insulin), monoexponential decay fit; for dissociation rate (measured) ± S.D., IGF-1R: dissociation of 125I-labeled ligand without cold ligand; for Shape of dose-response curve for accelerated dissociation, IGF-1R: 125I-labeled ligand preincubated […] at 15°C, cold ligand 0.001 nM-10 µM for 30 min at 15°C
Experimental: (§7) For details, see supporting information.
(§8) HEPES binding buffer. The use of bovine serum albumin in the binding buffer (e.g. Sigma-Aldrich […]
(§9) Following the incubation, the cells were washed twice with ice-cold binding buffer and solubilized with 0.1 M NaOH. Cell-associated radioactivity was counted using the Gamma Counter Wizard 1470 (Perkin […]
(§10) Each binding curve was determined
(§11) For dose-response curves for accelerated dissociation the cells (3 x 10^7/mL) in HEPES binding buffer were preincubated with the radio-labeled ligand (about 2500 Ci/mmol, 150,000 cpm/mL, about 0.03 nM) for 2.5 hours at 15°C. After the preincubation, the suspension was centrifuged at 1000 x g, 4°C for 5 min and the supernatant containing the unbound radioactivity was discarded. The pellet was resuspended in the initial volume of buffer.

IGF-1R [4] = biological target: T1, IGF-1R; assay: Ligand-dose response IGF-1R autophosphorylation, In-Cell Western assay; format: cell-based; conditions: 0.1-100 nM ligand, 20 min, relative to 10 nM IGF-1
Experimental: Ligand–dose response IGF-1R autophosphorylation levels for selected analogs were determined, using the In-Cell Western assay adapted for chemiluminescence as described ([34]). […] Experiments were repeated at least four times. Log(agonist) versus response curve fitting of data was carried out with GraphPad Prism 5.
Mean ± S.D. (n ≥ 4) values were calculated.
one-way analysis of variance (ANOVA) with Dunnett’s test comparing all analogs versus control i.e.
Ligand-dose response IGF-1R autophosphorylation levels for selected analogs were determined, using In-Cell Western assay adapted for chemiluminiscence as described in (6). The IGF-1R cells were plated at 20,000 cells/well in white 96-well Brand plates cell grade (Brand GMBH, Germany) and incubated for 24 hours. Cells were afterwards starved for 4 hours in serum-free media and stimulated with dilutions of ligands (0-100 nM) for 20 min. After the incubation, the medium was discarded and the cells were fixed in 3.75 % v/v freshly prepared formaldehyde for 20 min. […]
Then plates were thoroughly washed with TBS and incubated with peroxidase-labeled anti-rabbit secondary antibody (Sigma) for 1 hour at room temperature, and washed again. SuperSignal West Femto maximum sensitivity substrate was added to each well and chemiluminiscence was detected using the ChemiDoc MP Imaging System after 5 min. […]

IGF-1R [5] = biological target: T1, IGF-1R; assay: Receptor phosphorylation assay (immunoblotting), IGF-1R-transfected mouse fibroblasts (R+39); format: cell-based; conditions: 10 nM ligand, 10 min, n ≥ 4
From the text: For details, see supporting information. […] Each experiment was repeated four times.

IR-A [6] = biological target: T2, IR-A; assay: Association, dissociation and accelerated dissociation kinetics of 125I-labeled ligands on IR-A in IM-9 cells; format: binding
Experimental: as §7, §8, §9, §10, §11

T2 sequence (P06213 28-1370 isoform P06213-2 limits assumed): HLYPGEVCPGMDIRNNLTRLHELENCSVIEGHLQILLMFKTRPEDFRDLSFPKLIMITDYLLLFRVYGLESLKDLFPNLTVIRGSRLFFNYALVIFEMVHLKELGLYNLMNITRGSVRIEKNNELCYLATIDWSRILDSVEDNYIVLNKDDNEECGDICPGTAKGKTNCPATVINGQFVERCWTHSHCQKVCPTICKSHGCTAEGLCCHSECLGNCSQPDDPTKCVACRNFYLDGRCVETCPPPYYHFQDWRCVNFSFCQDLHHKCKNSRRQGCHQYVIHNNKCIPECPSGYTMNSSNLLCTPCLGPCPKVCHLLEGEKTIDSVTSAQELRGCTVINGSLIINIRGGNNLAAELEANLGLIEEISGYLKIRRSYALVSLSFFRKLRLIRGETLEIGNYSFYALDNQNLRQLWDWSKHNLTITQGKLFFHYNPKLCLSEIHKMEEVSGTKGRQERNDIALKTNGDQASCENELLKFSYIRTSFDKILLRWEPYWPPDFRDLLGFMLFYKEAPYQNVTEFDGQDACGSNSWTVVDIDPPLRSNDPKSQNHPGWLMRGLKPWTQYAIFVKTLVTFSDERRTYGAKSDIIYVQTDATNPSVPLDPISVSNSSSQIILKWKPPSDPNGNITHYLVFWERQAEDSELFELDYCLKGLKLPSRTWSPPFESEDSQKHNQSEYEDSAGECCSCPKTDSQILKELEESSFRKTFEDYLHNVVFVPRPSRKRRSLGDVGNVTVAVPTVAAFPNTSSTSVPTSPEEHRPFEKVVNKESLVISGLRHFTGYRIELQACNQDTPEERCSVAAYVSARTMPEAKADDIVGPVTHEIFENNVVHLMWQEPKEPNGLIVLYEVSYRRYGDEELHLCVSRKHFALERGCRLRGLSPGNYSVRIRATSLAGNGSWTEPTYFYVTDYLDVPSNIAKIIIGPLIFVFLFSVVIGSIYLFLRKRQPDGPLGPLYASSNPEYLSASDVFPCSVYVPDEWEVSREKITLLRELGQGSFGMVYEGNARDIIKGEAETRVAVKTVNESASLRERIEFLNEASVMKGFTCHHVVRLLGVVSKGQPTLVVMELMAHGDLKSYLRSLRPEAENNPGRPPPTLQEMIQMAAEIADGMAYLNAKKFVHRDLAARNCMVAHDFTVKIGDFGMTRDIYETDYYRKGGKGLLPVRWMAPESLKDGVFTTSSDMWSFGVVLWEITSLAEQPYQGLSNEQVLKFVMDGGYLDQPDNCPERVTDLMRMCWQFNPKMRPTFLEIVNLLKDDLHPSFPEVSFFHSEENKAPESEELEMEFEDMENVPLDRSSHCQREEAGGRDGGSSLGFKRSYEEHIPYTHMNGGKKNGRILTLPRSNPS
T2 sequence (P06213 763-1382 partner limits assumed): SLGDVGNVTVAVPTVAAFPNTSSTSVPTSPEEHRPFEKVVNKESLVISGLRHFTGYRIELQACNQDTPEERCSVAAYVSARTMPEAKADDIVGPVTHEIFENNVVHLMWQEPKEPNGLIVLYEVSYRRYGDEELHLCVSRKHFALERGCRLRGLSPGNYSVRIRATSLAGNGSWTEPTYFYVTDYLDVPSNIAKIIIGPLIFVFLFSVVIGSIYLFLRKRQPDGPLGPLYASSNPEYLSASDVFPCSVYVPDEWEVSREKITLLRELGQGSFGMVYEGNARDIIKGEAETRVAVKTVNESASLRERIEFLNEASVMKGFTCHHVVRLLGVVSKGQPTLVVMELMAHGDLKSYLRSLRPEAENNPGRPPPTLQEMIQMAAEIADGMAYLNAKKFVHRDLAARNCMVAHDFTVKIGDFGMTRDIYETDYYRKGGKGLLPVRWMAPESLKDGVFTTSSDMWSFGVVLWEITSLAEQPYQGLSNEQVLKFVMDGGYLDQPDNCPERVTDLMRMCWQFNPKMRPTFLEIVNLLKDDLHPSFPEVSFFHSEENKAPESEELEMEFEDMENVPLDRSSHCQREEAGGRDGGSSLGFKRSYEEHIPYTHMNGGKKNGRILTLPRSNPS

Kd (IGF-1R [1]; IGF-1R null mouse embryonic fibroblasts transfected with human IGF-1R, competition with mono-125I-IGF-1 (about 0.01 nM), 16 h at 5°C, HEPES binding buffer, mean ± S.D. of n≥3 binding curves, measurement series #) | Kd (IR-A [2]) | (d1) dissociation rate at maximum acceleration ± S.D., IGF-1R (IGF-1R [3]) | dissociation rate (measured) ± S.D., IGF-1R (IGF-1R [3]) | Shape of dose-response curve for accelerated dissociation, IGF-1R (IGF-1R [3]) | Kd (IGF-1R [1]; as E12, measurement series $, read-out: IGF-1R Kd ± S.D. (n)) | Increase of binding to IGF-1R compared with insulin (IGF-1R [1]; from Table 1 binding affinities) | Dose-response of IGF-1R stimulation (IGF-1R [4]) | (d1) dissociation rate at maximum acceleration ± S.D., IR-A (IR-A [6]; 15°C, dissociation of 125I-labeled ligand in the presence of 170 nM cold ligand, monoexponential decay fit) | dissociation rate (measured) ± S.D., IR-A (IR-A [6]; 15°C, dissociation of 125I-labeled ligand without cold ligand) | Shape of dose-response curve for accelerated dissociation, IR-A (IR-A [6]; 125I-labeled ligand preincubated […] at 15°C, cold ligand 0.001 nM-10 µM for 30 min at 15°C) | Substance | Ability to stimulate IGF-1R phosphorylation (IGF-1R [5])
2.32 ± 1.24 nM | 2.92 ± 0.24 nM |  |  |  |  |  |  |  |  |  | IGF-2: insulin-like growth factor 2, protein hormone closely related to insulin | 
 |  | 0.0203 ± 0.0038 min⁻¹ | 0.0064 ± 0.0035 min⁻¹ | sigmoid | 0.89 ± 0.2 nM | about 150 fold | equipotent to IGF-2 | 0.0432 ± 0.0032 min⁻¹ | 0.0017 ± 0.0002 min⁻¹ | bell-shaped | [D-His^B24, Gly^B31, Tyr^B32]-insulin | increased stimulation of the receptor; also recorded: to an extent approximating IGF-2
 |  | 0.0069 ± 0.0004 min⁻¹ | 0.0026 ± 0.0010 min⁻¹ | sigmoid |  |  |  |  |  |  | insulin [reference compound] | 
